Literature values as cited in patent publication USRE37771E1, “Purification of cinnamoyl-C-glycoside chromone” (Univera Pharmaceuticals, Inc., priority 1996, dated 2002).

What was measured:
[1] = in vivo assays; details in related U.S. application Ser. No. 08/391,139
epithelial cell lines = conditions: in vitro, details in related U.S. application Ser. No. 08/391,139

## COc1cc(C)c2c(=O)cc(CC(C)O)oc2c1C1OC(CO)C(O)C(O)C1OC(=O)/C=C/c1ccccc1 [540 compound, 8-C-β-D-[2′-O-(E)-cinnamoyl]glycopyranosyl-2-[(S)-2-hydroxy]propyl-7-methoxy-5-methylchromone]
[1]
  anti-inflammatory activity: potent anti-inflammatory activity
Epithelial cell lines
  inhibition of EGF-induced DNA synthesis: inhibit EGF-induced DNA synthesis
